Results published in PMC10006169, “A phase I trial of LXS196, a protein kinase C (PKC) inhibitor, for metastatic uveal melanoma” (British Journal of Cancer, 2023).
Where two headings read alike, the source gives them in different places.

Assay: Plasma pharmacokinetics (LC-MS/MS)
Assay type: in vivo, human
Details: for AUC(0-inf) / half-life / AUC(0-t) / Cmax / Tmax / concentration at 15 day: human, plasma, oral; for Tmax: read-out: Tmax, Median (Min, max); for concentration at 15 day: read-out: Cmin, Median (Min, max)
Experimental: In the dose escalation part of the study, PK samples were collected at various pre- and post-dose time points on C1D1, D2, D3, D15 and D16. Drug concentrations were assessed using a validated liquid chromatography-tandem mass spectrometry assay.

CC1(N)CCN(c2cccnc2NC(=O)c2nc(-c3ncccc3C(F)(F)F)cnc2N)CC1 [LXS196]
Increase in exposure (AUC0–t and Cmax) with dose (C1D1 and D15, QD and BID): under-proportional
Racc (accumulation ratio), Geo-mean (C1D15, 100 mg QD, n=2): 1.2
Racc (accumulation ratio), Mean (SD) (C1D15, 100 mg QD, n=2): 1.27 (0.570)
Racc (accumulation ratio), Median (Min, max) (C1D15, 100 mg QD, n=2): 1.27 (0.867, 1.67)
Cmin, Geo-mean (C1D15, 100 mg QD, n=3): 137 ng/mL
Cmin, Mean (SD) (C1D15, 100 mg QD, n=3): 144 (58.0) ng/mL
Cmin, Geo-mean (C1D15, 200 mg BID, n=5): 705 ng/mL
Cmin, Mean (SD) (C1D15, 200 mg BID, n=5): 787 (376) ng/mL
Racc (accumulation ratio), Geo-mean (C1D15, 200 mg BID, n=5): 0.989
Racc (accumulation ratio), Mean (SD) (C1D15, 200 mg BID, n=5): 1.11 (0.611)
Racc (accumulation ratio), Median (Min, max) (C1D15, 200 mg BID, n=5): 0.852 (0.539, 2.00)
Racc (accumulation ratio), Geo-mean (C1D15, 200 mg QD, n=2): 0.743
Racc (accumulation ratio), Mean (SD) (C1D15, 200 mg QD, n=2): 0.750 (0.145)
Racc (accumulation ratio), Median (Min, max) (C1D15, 200 mg QD, n=2): 0.75 (0.647, 0.852)
Cmin, Geo-mean (C1D15, 200 mg QD, n=3): 134 ng/mL
Cmin, Mean (SD) (C1D15, 200 mg QD, n=3): 143 (59.2) ng/mL
Racc (accumulation ratio), Geo-mean (C1D15, 300 mg BID, n=12): 1.09
Racc (accumulation ratio), Mean (SD) (C1D15, 300 mg BID, n=12): 1.15 (0.403)
Racc (accumulation ratio), Median (Min, max) (C1D15, 300 mg BID, n=12): 1.07 (0.549, 1.98)
Cmin, Geo-mean (C1D15, 300 mg BID, n=17): 912 ng/mL
Cmin, Mean (SD) (C1D15, 300 mg BID, n=17): 1040 (462) ng/mL
Cmin, Median (Min, max) (C1D15, 300 mg BID, n=17): 1070 (155, 2100) ng/mL
Racc (accumulation ratio), Geo-mean (C1D15, 300 mg QD, n=13): 0.895
Racc (accumulation ratio), Mean (SD) (C1D15, 300 mg QD, n=13): 0.934 (0.307)
Racc (accumulation ratio), Median (Min, max) (C1D15, 300 mg QD, n=13): 0.838 (0.577, 1.72)
Cmin, Geo-mean (C1D15, 300 mg QD, n=14): 344 ng/mL
Cmin, Mean (SD) (C1D15, 300 mg QD, n=14): 426 (319) ng/mL
Racc (accumulation ratio), Geo-mean (C1D15, 400 mg BID, n=3): 0.721
Racc (accumulation ratio), Mean (SD) (C1D15, 400 mg BID, n=3): 0.738 (0.204)
Racc (accumulation ratio), Median (Min, max) (C1D15, 400 mg BID, n=3): 0.643 (0.599, 0.972)
Cmin, Geo-mean (C1D15, 400 mg BID, n=4): 627 ng/mL
Cmin, Mean (SD) (C1D15, 400 mg BID, n=4): 647 (194) ng/mL
Cmin, Median (Min, max) (C1D15, 400 mg BID, n=4): 608 (464, 909) ng/mL
Racc (accumulation ratio), Geo-mean (C1D15, 500 mg QD, n=8): 0.767
Racc (accumulation ratio), Mean (SD) (C1D15, 500 mg QD, n=8): 0.793 (0.214)
Racc (accumulation ratio), Median (Min, max) (C1D15, 500 mg QD, n=8): 0.768 (0.484, 1.11)
Cmin, Geo-mean (C1D15, 500 mg QD, n=9): 622 ng/mL
Cmin, Mean (SD) (C1D15, 500 mg QD, n=9): 660 (234) ng/mL
Cmin, Geo-mean (C1D15, 1000 mg QD, n=2): 673 ng/mL
Cmin, Mean (SD) (C1D15, 1000 mg QD, n=2): 674 (10.6) ng/mL
Racc (accumulation ratio), Geo-mean (C1D15, 1000 mg QD, n=2): 0.709
Racc (accumulation ratio), Mean (SD) (C1D15, 1000 mg QD, n=2): 0.718 (0.161)
Racc (accumulation ratio), Median (Min, max) (C1D15, 1000 mg QD, n=2): 0.718 (0.604, 0.832)
PK variability (CV% for Cmax and AUC0–t) (between-patient): moderate
AUC(0-inf) (100 mg, C1D1, 100 mg QD, n=2, read-out: AUCinf, Geo-mean): 8560 ng·h/mL
AUC(0-inf) (100 mg, C1D1, 100 mg QD, n=2, read-out: AUCinf, Mean (SD)): 8640 ng·h/mL
AUC(0-inf) (100 mg, C1D1, 100 mg QD, n=2, read-out: AUCinf, Median (Min, max)): 8640 ng·h/mL
half-life (100 mg, C1D1, 100 mg QD, n=2, read-out: T1/2, Geo-mean (converted)): 8.43 h
half-life (100 mg, C1D1, 100 mg QD, n=2, read-out: T1/2, Mean (SD) (converted)): 8.49 h
half-life (100 mg, C1D1, 100 mg QD, n=2, read-out: T1/2, Median (Min, max) (converted)): 8.49 h
AUC(0-t) (100 mg, C1D1, 100 mg QD, n=3, read-out: AUC0-t, Geo-mean): 8440 ng·h/mL
AUC(0-t) (100 mg, C1D1, 100 mg QD, n=3, read-out: AUC0-t, Mean (SD)): 8670 ng·h/mL
AUC(0-t) (100 mg, C1D1, 100 mg QD, n=3, read-out: AUC0-t, Median (Min, max)): 8020 ng·h/mL
Cmax (100 mg, C1D1, 100 mg QD, n=3, read-out: Cmax, Geo-mean): 774 ng/mL
Cmax (100 mg, C1D1, 100 mg QD, n=3, read-out: Cmax, Mean (SD)): 776 ng/mL
Cmax (100 mg, C1D1, 100 mg QD, n=3, read-out: Cmax, Median (Min, max)): 811 ng/mL
Tmax (100 mg, C1D1, 100 mg QD, n=3): 1 h
AUC(0-t) (100 mg, C1D15, 100 mg QD, n=2, read-out: AUC0-t, Geo-mean): 10400 ng·h/mL
AUC(0-t) (100 mg, C1D15, 100 mg QD, n=2, read-out: AUC0-t, Mean (SD)): 10400 ng·h/mL
AUC(0-t) (100 mg, C1D15, 100 mg QD, n=2, read-out: AUC0-t, Median (Min, max)): 10400 ng·h/mL
Cmax (100 mg, C1D15, 100 mg QD, n=3, read-out: Cmax, Geo-mean): 1180 ng/mL
Cmax (100 mg, C1D15, 100 mg QD, n=3, read-out: Cmax, Mean (SD)): 1190 ng/mL
Cmax (100 mg, C1D15, 100 mg QD, n=3, read-out: Cmax, Median (Min, max)): 1260 ng/mL
concentration at 15 day (100 mg, C1D15, 100 mg QD, n=3): 112 ng/mL
Tmax (100 mg, C1D15, 100 mg QD, n=3): 1 h
AUC(0-t) (200 mg, C1D1, 200 mg BID, n=6, read-out: AUC0-t, Geo-mean): 15400 ng·h/mL
AUC(0-t) (200 mg, C1D1, 200 mg BID, n=6, read-out: AUC0-t, Mean (SD)): 18600 ng·h/mL
AUC(0-t) (200 mg, C1D1, 200 mg BID, n=6, read-out: AUC0-t, Median (Min, max)): 13300 ng·h/mL
AUC(0-inf) (200 mg, C1D1, 200 mg BID, n=6, read-out: AUCinf, Geo-mean): 24000 ng·h/mL
AUC(0-inf) (200 mg, C1D1, 200 mg BID, n=6, read-out: AUCinf, Mean (SD)): 29200 ng·h/mL
AUC(0-inf) (200 mg, C1D1, 200 mg BID, n=6, read-out: AUCinf, Median (Min, max)): 21600 ng·h/mL
Cmax (200 mg, C1D1, 200 mg BID, n=6, read-out: Cmax, Geo-mean): 3270 ng/mL
Cmax (200 mg, C1D1, 200 mg BID, n=6, read-out: Cmax, Mean (SD)): 4070 ng/mL
Cmax (200 mg, C1D1, 200 mg BID, n=6, read-out: Cmax, Median (Min, max)): 2950 ng/mL
half-life (200 mg, C1D1, 200 mg BID, n=6, read-out: T1/2, Geo-mean (converted)): 13 h
half-life (200 mg, C1D1, 200 mg BID, n=6, read-out: T1/2, Mean (SD) (converted)): 13.1 h
half-life (200 mg, C1D1, 200 mg BID, n=6, read-out: T1/2, Median (Min, max) (converted)): 13.1 h
Tmax (200 mg, C1D1, 200 mg BID, n=6): 0.525 h
AUC(0-t) (200 mg, C1D1, 200 mg QD, n=3, read-out: AUC0-t, Geo-mean): 18700 ng·h/mL
AUC(0-t) (200 mg, C1D1, 200 mg QD, n=3, read-out: AUC0-t, Mean (SD)): 19100 ng·h/mL
AUC(0-t) (200 mg, C1D1, 200 mg QD, n=3, read-out: AUC0-t, Median (Min, max)): 18900 ng·h/mL
AUC(0-inf) (200 mg, C1D1, 200 mg QD, n=3, read-out: AUCinf, Geo-mean): 21300 ng·h/mL
AUC(0-inf) (200 mg, C1D1, 200 mg QD, n=3, read-out: AUCinf, Mean (SD)): 21600 ng·h/mL
AUC(0-inf) (200 mg, C1D1, 200 mg QD, n=3, read-out: AUCinf, Median (Min, max)): 22600 ng·h/mL
Cmax (200 mg, C1D1, 200 mg QD, n=3, read-out: Cmax, Geo-mean): 3410 ng/mL
Cmax (200 mg, C1D1, 200 mg QD, n=3, read-out: Cmax, Mean (SD)): 3540 ng/mL
Cmax (200 mg, C1D1, 200 mg QD, n=3, read-out: Cmax, Median (Min, max)): 2860 ng/mL
half-life (200 mg, C1D1, 200 mg QD, n=3, read-out: T1/2, Geo-mean (converted)): 8.36 h
half-life (200 mg, C1D1, 200 mg QD, n=3, read-out: T1/2, Mean (SD) (converted)): 8.52 h
half-life (200 mg, C1D1, 200 mg QD, n=3, read-out: T1/2, Median (Min, max) (converted)): 8.44 h
Tmax (200 mg, C1D1, 200 mg QD, n=3): 1 h
AUC(0-t) (200 mg, C1D15, 200 mg BID, n=5, read-out: AUC0-t, Geo-mean): 15400 ng·h/mL
AUC(0-t) (200 mg, C1D15, 200 mg BID, n=5, read-out: AUC0-t, Mean (SD)): 16900 ng·h/mL
AUC(0-t) (200 mg, C1D15, 200 mg BID, n=5, read-out: AUC0-t, Median (Min, max)): 16000 ng·h/mL
Cmax (200 mg, C1D15, 200 mg BID, n=5, read-out: Cmax, Geo-mean): 2470 ng/mL
Cmax (200 mg, C1D15, 200 mg BID, n=5, read-out: Cmax, Mean (SD)): 2910 ng/mL
Cmax (200 mg, C1D15, 200 mg BID, n=5, read-out: Cmax, Median (Min, max)): 2540 ng/mL
concentration at 15 day (200 mg, C1D15, 200 mg BID, n=5): 883 ng/mL
Tmax (200 mg, C1D15, 200 mg BID, n=5): 1 h
AUC(0-t) (200 mg, C1D15, 200 mg QD, n=3, read-out: AUC0-t, Geo-mean): 12900 ng·h/mL
AUC(0-t) (200 mg, C1D15, 200 mg QD, n=3, read-out: AUC0-t, Mean (SD)): 13200 ng·h/mL
AUC(0-t) (200 mg, C1D15, 200 mg QD, n=3, read-out: AUC0-t, Median (Min, max)): 13800 ng·h/mL
Cmax (200 mg, C1D15, 200 mg QD, n=3, read-out: Cmax, Geo-mean): 2490 ng/mL
Cmax (200 mg, C1D15, 200 mg QD, n=3, read-out: Cmax, Mean (SD)): 2500 ng/mL
Cmax (200 mg, C1D15, 200 mg QD, n=3, read-out: Cmax, Median (Min, max)): 2620 ng/mL
concentration at 15 day (200 mg, C1D15, 200 mg QD, n=3): 149 ng/mL
Tmax (200 mg, C1D15, 200 mg QD, n=3): 1 h
AUC(0-inf) (300 mg, C1D1, 300 mg BID, n=16, read-out: AUCinf, Geo-mean): 30900 ng·h/mL
AUC(0-inf) (300 mg, C1D1, 300 mg BID, n=16, read-out: AUCinf, Mean (SD)): 35200 ng·h/mL
AUC(0-inf) (300 mg, C1D1, 300 mg BID, n=16, read-out: AUCinf, Median (Min, max)): 28400 ng·h/mL
half-life (300 mg, C1D1, 300 mg BID, n=16, read-out: T1/2, Geo-mean (converted)): 11.9 h
half-life (300 mg, C1D1, 300 mg BID, n=16, read-out: T1/2, Mean (SD) (converted)): 12.1 h
half-life (300 mg, C1D1, 300 mg BID, n=16, read-out: T1/2, Median (Min, max) (converted)): 11.8 h
